Laboratory results reported in patent publication US11634434B2, “Bifunctional alpha-synuclein binding agents and uses thereof” (University of Saskatchewan, priority 2016, dated 2023).
Like-named read-outs stand apart in the source and are kept apart here.

What was measured:
[1] = biological target: T1, alpha-synuclein (Homo sapiens, UniProt P37840); assay: Nanopore analysis of alpha-synuclein (blockade current histograms); assay type: binding; conditions: 1 micromolar alpha-synuclein, 20 micromolar compound
Protocol: The bifunctional molecules were characterized by four different methods. […] If the compound causes a more compact conformation, then the alpha-synuclein can no longer translocate and it simply bumps into the pore giving rise to a very small change in the blockade current.^44-46
(§1) Nanopore analysis and isothermal titration calorimetry were performed as described previously.^21,54

[2] = system: preformed alpha-synuclein-GFP foci in yeast strain 2AS; assay: Yeast recovery assay, fluorescence microscopy of preformed AS-GFP foci; assay type: cell-based
Protocol: (§2) For Analysis of AS-GFP distribution, the 2AS strain was grown overnight in drop-out media. After normalization of culture density, galactose was administered to a final concentration of 5 mM. Fluorescence images were obtained at zero time, 3 hours, 6 hours, 9 hours and 12 hours. For the yeast recovery assay, yeast cells were obtained after 6 hours induction with 5 mM galactose concentration, washed in galactose free media and the compounds were added to a final concentration of 1 micromolar in a 2 mL reaction mixture. The culture was incubated at 30° C. for 3, 6, and 9 hour intervals. Images were obtained at each interval using an Olympus Infinity (BX51) fluorescence microscope at 100× magnification.

[3] = system: yeast strain 2AS; assay: Yeast recovery assay, growth of 2AS after 6 hours galactose induction; assay type: cell-based
[4] = biological target: T1, alpha-synuclein; assay: Isothermal titration calorimetry (ITC) binding to alpha-synuclein; as to Bind to N and C?: key: Y indicates yes; N indicates no
Protocol: as §1

[5] = system: alpha-synuclein in substantia nigra; assay: Immunohistochemistry of alpha-synuclein in substantia nigra of ASIA-treated rats; assay type: in vivo, rat; conditions: 7 days of chronic injections
Protocol: (§3) male Sprague-Dawley rats are used (200 g-300 g). All animals are handled ethically following approved protocols. For the first round of studies, rats are divided into five treatment groups:
(§4) Rats are subjected to 7-day chronic injection of 3 mg/kg of each test compound, and a forced swim test is conducted after the seventh day to measure motor deficits. […] For a second round of studies, rats are divided into four treatment groups, and the same experiments were repeated:
(§5) Tissue sections of substantia nigra from each of the treatment groups in the rat studies were evaluated for the presence of tyrosine hydroxylase, DNA (using the nuclear stain DAPI) and alpha-synuclein using immunohistochemistry. After behavioural tests were completed, the rats were euthanized, perfused and fixed in 4% paraformaldehyde. 40 μm brain slices were utilized for the immunohistochemistry procedure. Anti-Tyrosine Hydroxylase—a primary antibody for tyrosine positive neurons, host species rabbit, Millipore, Sigma Aldrich. DAPI—nuclear stain already pre-conjugated (NucBlue Fixed Cell Stain ReadyProbe reagent, Thermo Fisher Scientific). Anti-Alpha Synuclein—primary antibody for Anti-Synuclein, host species mouse, Abcam. Primary antibodies were diluted 1:500. Alexa Fluoro 488 Donkey anti-rabbit IgG—secondary antibody with fluorescent tag, Invitrogen, Thermo Fisher Scientific. Alexa Fluoro 594 Goat anti-mouse IgG—secondary antibody with fluorescent tag, Life Technologies, Thermo Fisher Scientific. Secondary antibodies were diluted 1:1000. Thioflavin S—stain for alpha-synuclein aggregates, Sigma Aldrich. Thioflavin S stock concentration at 5 mg/ml. Final dilution 1:100.
Tyrosine hydroxylase is a marker for dopaminergic neurons and is used to confirm that the desired cells are being imaged. DAPI (4′,6-diamidino-2-phenylindole) is a stain that binds to A-T rich regions in DNA, and is used to identify cell nuclei. Thioflavin S is used to stain aggregated proteins such as amyloid plaques. A higher level of staining with thioflavin S is indicative of a higher degree of protein aggregation.

[6] = system: yeast strain 2AS (2 copies of AS-GFP gene); assay type: cell-based
Protocol: (§6) Third, the drugs were assayed in a yeast model of Parkinson's Disease, which expresses an alpha-synuclein-Green Fluorescent Protein (AS-GFP) construct under the control of a galactose promoter.
Construction of the 1AS and 2AS strains has been described in detail previously.^55 Strains were grown in YPD supplemented with 30 μg/ml of all amino acids. The OD600 was adjusted to 0.05 in drop-out media (no uracil) at 30° C. Drugs were dissolved in methanol at 0.01 micromolar, 0.1 micromolar, 1 micromolar or 10 micromolar followed by addition of 100 micromolar or 5 mM galactose to a final volume of 10 mL.

[7] = system: male Sprague-Dawley rats with increased alpha-synuclein expression; assay: Forced swim test in ASIA-treated rats; assay type: in vivo, rat; conditions: for success in forced swim test / vigor in forced swim test: last three minutes of the test
Protocol: as §3, §4
The forced swim test is carried out by immersing the rat in water that is sufficiently deep to force the rat to swim. The forced swim test is scored based on the following criteria:
Vigor and success are measures of motor function. Immobility is thought to be a measure of depression.^59 Based on videos of the forced swim test, the amount of time that each rat was motionless was calculated as a form of scoring depression for each treatment. Statistical analysis was carried out using an ordinary one-way ANOVA and Tukey multiple comparisons test.

[8] = system: protein aggregation in substantia nigra; assay: Thioflavin S staining of substantia nigra of ASIA-treated rats; assay type: in vivo, rat
Protocol: as §4
as §5, with “Thioflavin S stock concentration at 5 mg/ml. Final dilution 1:100.” left out

[9] = system: alpha-synuclein-GFP aggregation in yeast strain 2AS; assay type: cell-based; conditions: 1 micromolar compound, 5 mM galactose, up to 12 hours
Protocol: as §6
as §2, with “Fluorescence images were obtained at zero time, 3 hours, 6 hours, 9 hours and 12 hours.” left out

[10] = 1 micromolar compound added after 6 hours of 5 mM galactose and wash

Cn1c(=O)c2c(nc(CCCCCCNC3CCc4ccccc43)n2C)n(C)c1=O (racemic) [Compound C8-6-I]
major peak, blockade current [1]: −68 pA
nanopore profile (bumping peak / binding) ([1]; FIG. 3): do not have a significant bumping peak
fluorescence pattern after compound addition to cells with preformed foci [2, 10]: By 9 hours, the peripheral location is restored and the halo reappears
effect on preformed large foci of alpha-synuclein ([2]; compound added 6 hours after induction with 5 mM galactose): can cause preformed large foci of alpha-synuclein to dissipate
time of resumption of growth [3, 10]: ~8 h
time of resumption of growth ([3]; 10 micromolar compound added after 6 hours of 5 mM galactose and wash): about 6 hours
increase of Ka for a 10-fold decrease in ionic strength ([4]; 100 mM KCl versus 1.0M KCl): approximately 10 fold
# of Binding sites ([4]; ITC in 100 mM KCl): 1
Ka ([4]; ITC in 100 mM KCl): 560000 M⁻¹
Ka ([4]; ITC in 1.0M KCl): 53000 M⁻¹
# of Binding sites ([4]; ITC in 1.0M KCl, bifunctional molecules (or monomers) per alpha-synuclein molecule, best fit): 1
# Binding sites ([4]; Table 2): 1
Ka ([4]; Table 2, ITC): 53000 M⁻¹
Bind to N and C? ([4]; binds to both N and C portions of alpha-synuclein): Y
binding constants as measured by ITC, order of magnitude ([4]; summary statement): ~10^5 M^−1
level of alpha-synuclein staining in substantia nigra ([5]; ASIA + compound 3 mg/kg): reduced
level of alpha-synuclein staining in substantia nigra ([5]; ASIA + compound 5 mg/kg): reduced
growth of 2AS yeast ([6]; 0.1 micromolar compound + 5 mM galactose): normal growth
growth of 2AS yeast ([6]; 1 micromolar compound + 5 mM galactose): essentially normal
immobility in forced swim test ([7]; ASIA + compound 3 mg/kg): improved
success in forced swim test ([7]; ASIA + compound 3 mg/kg): improved success
vigor in forced swim test ([7]; ASIA + compound 3 mg/kg): improved vigor
immobility in forced swim test ([7]; ASIA + compound 5 mg/kg): further improved
success in forced swim test ([7]; ASIA + compound 5 mg/kg): further improved success
vigor in forced swim test ([7]; ASIA + compound 5 mg/kg): further improved vigor
degree of protein aggregation, thioflavin S staining ([8]; ASIA + compound 3 mg/kg): decreases the degree of protein aggregation
degree of protein aggregation, thioflavin S staining ([8]; ASIA + compound 5 mg/kg): decreases the degree of protein aggregation
AS-GFP foci / fluorescence pattern [9]: by 12 hours the peripheral halo is restored
